In ChEMBL document CHEMBL5634094, “Micafungin: A promising inhibitor of UBE2M in cancer cell growth suppression” (Eur J Med Chem, 2023):
The source made the active and inactive calls. The calls are words filed in the database; no cut-off is given here. Starred links: 1 amine or outer side, 2 acyl side, 3 side chain; linkers in the order of their positions; H or OH if unused. Positions of bridges follow the written chain, without caps; N, C: chain ends. Non-standard residues stand in square brackets, D forms with d. Residues, ends and D or L forms follow the SMILES beside them. *: point of attachment. hTyr(3S-OH,4S-OH,3'-OSO3H) = N[C@H](C(=O)O)[C@H](O)[C@@H](O)c1ccc(O)c(OS(=O)(=O)O)c1; Orn(4R-OH,5R-OH) = O=C([C@H](C[C@@H](O)[C@@H](O)N[*:3])N[*:1])[*:2]; Pro(3S-OH,4S-Me) = C[C@H]1CN[C@H](C(=O)O)[C@H]1O; X1 = CCCCCOc1ccc(-c2cc(-c3ccc(C(=O)*)cc3)no2)cc1; Gln(3R-OH) = NC(=O)C[C@@H](O)[C@H](N)C(=O)O; Hyp = O=C(O)[C@@H]1C[C@@H](O)CN1

What was measured:
[1] = target: T1, NEDD8/NEDD8-conjugating enzyme Ubc12 (Homo sapiens, UniProt P61081+Q15843); assay: Inhibition of GST-tagged recombinant human UBE2M/His-tagged human NEDD8 interaction by HTRF assay relative to control; format: protein-complex assay
T1 sequence (Q15843 whole entry, one chain of several): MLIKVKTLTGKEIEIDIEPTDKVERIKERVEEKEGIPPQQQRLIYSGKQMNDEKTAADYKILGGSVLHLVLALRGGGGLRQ

[2] = species on record: Homo sapiens; assay: Inhibition of neddylation of His-tagged recombinant human NAE expressed in Escherichia coli (BL21) at 6.25 to 100 uM by Western blot analysis; conditions: dose 6.25-100 µM
[3] = target: T2, NEDD8-conjugating enzyme Ubc12 (Homo sapiens) (UniProt P61081); assay: Binding affinity to GST-tagged recombinant human UBE2M assessed as protein stability at 55 to 60 degreeC incubated for 24 hrs by CETSA; format: cell-based; conditions: AGS
T2 sequence (whole entry): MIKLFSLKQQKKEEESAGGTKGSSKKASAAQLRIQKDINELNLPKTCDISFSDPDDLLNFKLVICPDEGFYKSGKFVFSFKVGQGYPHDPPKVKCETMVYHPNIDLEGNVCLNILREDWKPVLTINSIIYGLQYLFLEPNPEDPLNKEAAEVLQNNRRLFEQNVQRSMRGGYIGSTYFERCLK

[4] = target: Cullin-1 (Homo sapiens) (UniProt Q13616); assay: Inhibition of CULLIN-1 neddylation in human AGS cells assessed as increase in p21 level incubated for 24 hrs by immunoblot analysis; format: cell-based; conditions: dose 5-40 µM
Chain of Cullin-1 (Homo sapiens) (Q13616 whole entry): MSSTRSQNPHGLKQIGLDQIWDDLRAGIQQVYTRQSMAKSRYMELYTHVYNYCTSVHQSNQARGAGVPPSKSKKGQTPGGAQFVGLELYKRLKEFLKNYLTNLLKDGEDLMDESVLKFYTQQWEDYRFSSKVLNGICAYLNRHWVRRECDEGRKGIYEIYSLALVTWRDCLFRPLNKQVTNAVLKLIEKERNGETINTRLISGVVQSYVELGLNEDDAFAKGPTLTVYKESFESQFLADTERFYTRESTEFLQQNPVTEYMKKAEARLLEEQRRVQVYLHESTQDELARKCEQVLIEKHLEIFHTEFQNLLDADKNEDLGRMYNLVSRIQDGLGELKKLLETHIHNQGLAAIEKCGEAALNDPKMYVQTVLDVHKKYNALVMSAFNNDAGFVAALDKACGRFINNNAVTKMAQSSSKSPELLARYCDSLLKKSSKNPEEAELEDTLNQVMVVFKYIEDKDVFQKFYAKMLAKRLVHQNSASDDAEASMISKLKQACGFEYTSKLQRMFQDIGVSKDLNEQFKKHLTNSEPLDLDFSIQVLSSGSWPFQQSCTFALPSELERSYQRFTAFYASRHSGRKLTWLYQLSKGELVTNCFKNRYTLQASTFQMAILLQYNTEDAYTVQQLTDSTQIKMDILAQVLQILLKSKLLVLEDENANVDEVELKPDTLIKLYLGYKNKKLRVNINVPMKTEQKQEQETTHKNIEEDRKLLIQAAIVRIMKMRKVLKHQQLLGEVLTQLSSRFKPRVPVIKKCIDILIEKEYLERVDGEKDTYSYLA

[5] = target: T3, NEDD8-conjugating enzyme Ubc12 (Homo sapiens, UniProt P61081); assay: Inhibition of UBE2M neddylation in human AGS cells incubated for 3 days by immunoblot analysis; format: cell-based
T3 sequence (P61081 whole entry): T2 sequence (whole entry)

[6] = target: T2, NEDD8-conjugating enzyme Ubc12 (Homo sapiens); assay: Inhibition of neddylation of GST-tagged recombinant human UBE2M expressed in Escherichia coli (BL21) by Western blot analysis; conditions: dose 6.25-100 µM
[7] = target: T1, NEDD8/NEDD8-conjugating enzyme Ubc12; assay: Inhibition of GST-tagged recombinant human UBE2M/His-tagged human NEDD8 interaction by HTRF assay; format: protein-complex assay
[8] = target: T2, NEDD8-conjugating enzyme Ubc12 (Homo sapiens); assay: Inhibition of […] conjugation to GST-tagged recombinant human UBE2M by pull-down based immunoprecipitation method
[9] = system: AGS; assay: Inhibition of global CULLIN neddylation in human AGS cells incubated for 24 hrs by immunoblot analysis; format: cell-based; conditions: dose 5-40 µM
[10] = target: T2, NEDD8-conjugating enzyme Ubc12 (Homo sapiens); assay: Binding affinity to GST-tagged recombinant human UBE2M assessed as protein stability upto 70 degreeC at 20 uM preincubated for 10 mins followed by heat exposure by TSA
[11] = target: T2, NEDD8-conjugating enzyme Ubc12 (Homo sapiens); assay: Binding affinity to GST-tagged recombinant human UBE2M assessed as protein stability at 60 degreeC preincubated for 10 mins followed by heat exposure by TSA; conditions: dose 1.25-20 µM
[12] = target: T2, NEDD8-conjugating enzyme Ubc12 (Homo sapiens); assay: Binding affinity to GST-tagged recombinant human UBE2M assessed as protein stability at 65 degreeC incubated for 24 hrs by CETSA; conditions: AGS
[13] = target: Cullin-1 (Homo sapiens) (UniProt Q13616); assay: Inhibition of CULLIN-1 neddylation in human AGS cells incubated for 24 hrs by immunoblot analysis; format: cell-based; conditions: dose 5-40 µM
[14] = target: Cullin-1 (Homo sapiens) (UniProt Q13616); assay: Inhibition of CULLIN-1 neddylation in human AGS cells assessed as increase in p27 level at 5 to 40 uM incubated for 24 hrs by immunoblot analysis; format: cell-based; conditions: dose 5-40 µM
[15] = system: AGS; assay: Induction of apoptosis in human AGS cells assessed as increase in cleaved caspase-3 level at 5 to 40 uM incubated for 24 hrs by immunoblot analysis; format: functional, cell-based; conditions: dose 5-40 µM
[16] = system: AGS; assay: Induction of apoptosis in human AGS cells assessed as decrease in PARP-1 level at 5 to 40 uM incubated for 24 hrs by immunoblot analysis; format: functional, cell-based; conditions: dose 5-40 µM
[17] = system: AGS; assay: Induction of apoptosis in human AGS cells assessed as increase in NOXA level at 5 to 40 uM incubated for 24 hrs by immunoblot analysis; format: functional, cell-based; conditions: dose 5-40 µM
[18] = system: AGS; assay: Inhibition of cell viability in human AGS cells incubated for 72 to 120 hrs by MTT assay; format: functional, cell-based; conditions: dose 5-80 µM, time 72-120 hrs
[19] = system: AGS; assay: Inhibition of colony formation of human AGS cells incubated for 10 days with replacement of drug containing medium every 3 days by crystal violet staining based analysis; format: functional, cell-based; conditions: dose 10-40 µM, time 10.0 day
[20] = system: AGS; assay: Induction of cell cycle arrest at G2/M phase in human AGS cells at 20 to 40 uM incubated for 24 hrs by PI staining based FACS analysis; format: functional; conditions: dose 20-40 µM
[21] = system: AGS; assay: Induction of cell cycle arrest in human AGS cells assessed as decrease in cell population at S phase at 20 to 40 uM incubated for 24 hrs by PI staining based FACS analysis; format: functional; conditions: dose 20-40 µM
[22] = system: AGS; assay: Induction of cell cycle arrest at G2 phase in human AGS cells at 20 to 40 uM incubated for 24 hrs by PI staining based FACS analysis; format: functional; conditions: dose 20-40 µM
[23] = system: AGS; assay: Induction of DNA damage in human AGS cells assessed as increase in phosphorylated H2Ax expression at 50 uM incubated for 48 hrs by immunofluorescence analysis; format: functional, cell-based
[24] = system: AGS; assay: Inhibition of cell migration of human AGS cells at 50 uM incubated for 48 hrs by wound healing assay; format: functional, cell-based
[25] = system: AGS; assay: Inhibition of cell migration of human AGS cells at 50 uM incubated for 48 hrs by transwell assay; format: functional, cell-based
[26] = system: AGS; assay: Inhibition of cell migration of human AGS cells assessed as increase in E-CADHERIN level at 5 to 40 uM incubated for 48 hrs by Western blot analysis; format: functional, cell-based; conditions: dose 5-40 µM
[27] = system: AGS; assay: Inhibition of cell migration of human AGS cells assessed as decrease in SNAIL level at 5 to 40 uM incubated for 48 hrs by Western blot analysis; format: functional, cell-based; conditions: dose 5-40 µM
[28] = system: AGS; assay: Inhibition of cell migration of human AGS cells assessed as decrease in VIMENTIN level at 5 to 40 uM incubated for 48 hrs by Western blot analysis; format: functional, cell-based; conditions: dose 5-40 µM
[29] = system: AGS; assay: Inhibition of cell migration of human AGS cells assessed as increase in N-CADHERIN level at 5 to 40 uM incubated for 48 hrs by Western blot analysis; format: functional, cell-based; conditions: dose 5-40 µM
[30] = Inhibition of His-tagged recombinant human NAE expressed in Escherichia coli (BL21) by HTRF assay

Compound: CCCCCCCCCCCC[N+](C)(C)CCOc1ccccc1
- inhibition [1]: 56.5%

Compound: CCCCCCCCOc1ccccc1C(=O)Nc1ccc(C(=O)OCC[N+](C)(CC)CC)cc1
- inhibition [1]: 74.2%
- inhibition [2]: Active

Compound: CN(C)[C@@H]1C(O)=C(C(N)=O)C(=O)[C@@]2(O)C(O)=C3C(=O)c4c(O)cccc4[C@@](C)(O)[C@H]3C[C@@H]12
- inhibition [1]: 56.4%

Compound: CN(C)[C@@H]1C(O)=C(C(N)=O)C(=O)[C@@]2(O)C(O)=C3C(=O)c4c(O)cccc4[C@@](C)(O)[C@H]3[C@H](O)[C@@H]12
- inhibition [1]: 64.8%

Compound: CN(C)c1cc(NC(=O)CNC(C)(C)C)c(O)c2c1C[C@H]1C[C@H]3[C@H](N(C)C)C(O)=C(C(N)=O)C(=O)[C@@]3(O)C(O)=C1C2=O
- inhibition [1]: 69.3%

Compound: CN(C)c1ccc(O)c2c1C[C@H]1C[C@H]3[C@H](N(C)C)C(O)=C(C(N)=O)C(=O)[C@@]3(O)C(O)=C1C2=O
- inhibition [1]: 58.9%

Compound: COc1cccc2c1C(=O)c1c(O)c3c(c(O)c1C2=O)C[C@@](O)(C(=O)CO)C[C@@H]3O[C@H]1C[C@H](N)[C@H](O)[C@H](C)O1
- inhibition [1]: 76.5%

Compound: C[C@H]1c2cccc(O)c2C(=O)C2=C(O)[C@]3(O)C(=O)C(C(N)=O)=C(O)[C@@H](N(C)C)[C@@H]3[C@@H](O)[C@@H]21
- inhibition [1]: 78.1%

Compound: Cc1cc(Nc2ncc(Cl)c(Nc3ccccc3S(=O)(=O)C(C)C)n2)c(OC(C)C)cc1C1CCNCC1
- inhibition [1]: 88.2%
- inhibition [2]: Active

Compound: Cc1cccc(N(C)C(=S)Oc2ccc3ccccc3c2)c1
- inhibition [1]: 55.2%

Compound: CCCCCOc1ccc(-c2cc(-c3ccc(C(=O)N[C@H]4C[C@@H](O)[C@@H](O)NC(=O)[C@@H]5[C@@H](O)[C@@H](C)CN5C(=O)[C@H]([C@H](O)CC(N)=O)NC(=O)[C@H]([C@H](O)[C@@H](O)c5ccc(O)c(OS(=O)(=O)O)c5)NC(=O)[C@@H]5C[C@@H](O)CN5C(=O)[C@H]([C@@H](C)O)NC4=O)cc3)no2)cc1 [MICAFUNGIN] (X1-[Orn(4R-OH,5R-OH)]T[Hyp][hTyr(3S-OH,4S-OH,3'-OSO3H)][Gln(3R-OH)][Pro(3S-OH,4S-Me)]; lactam 1-C)
- Activity [3]: Active
- inhibition [4]: Dose-Dependent Effect
- IC50 [5]: 39.9 µM
- inhibition [1]: 66.2%
- inhibition [2]: inactive
- inhibition [6]: Dose-Dependent Effect
- IC50 [7]: 17 µM
- inhibition [8]: Active
- inhibition [9]: Active
- Activity [10]: Active
- Activity [11]: Dose-Dependent Effect
- Activity [12]: inactive
- inhibition [13]: Active
- inhibition [14]: Active
- Activity [15]: Active
- Activity [16]: Active
- Activity [17]: Active
- inhibition [18]: Active
- inhibition [19]: Active
- Activity [20]: Active
- Activity [21]: Active
- Activity [22]: Active
- Activity [23]: Active
- inhibition [24]: Active
- inhibition [25]: Active
- inhibition [26]: Active
- inhibition [27]: Active
- inhibition [28]: Active
- inhibition [29]: Active

Compound: NS(=O)(=O)OC[C@@H]1C[C@@H](n2ccc3c(N[C@H]4CCc5ccccc54)ncnc32)C[C@@H]1O [PEVONEDISTAT]
- IC50 [30]: 0.0058 µM
